Experiments:
[1] = set-up: method as in PMID 1441590; details: human microsomes from a single donor; cited from earlier work
[2] = Enone metabolite formation in rat liver microsomes; format: in vitro ADME; details: 6 at 4 µM, 0.4 mg/mL RLM, 100 min
Procedure: (§1) In preliminary experiments, the potential enone precursors 5–8 (8 µM) were incubated with either RLM (0.4 mg/mL) or HLM (0.8 mg/mL) for up to 4 h according to the protocol given in Section 4.3.1. Multiple samples were taken during incubation and analyzed with regard to the presence of the enone metabolite 4 in the incubation mixture.
(§2) The time course of the formation of 4 from precursor 6 was monitored by incubation of 6 (4 µM) with either 1.0 mg/mL HLM for 150 min or 0.4 mg/mL RLM for 100 min according to the procedures described in Section 4.3.1. but with a prolonged centrifugation cycle (15 min) for protein precipitation. Chromatographic separation was performed on a Kromasil C18 column (see Section 4.3.1) equipped with a 3 mm NH2 guard column (OPTI-GUARD, Optimize Technologies Inc., Oregon City, OR, USA) using an eluent composed of MeCN/H2O/AcOH 45:55:0.1 (v/v/v). All other chromatographic parameters resembled those given above. Incubations were conducted in triplicate.

[3] = Enone metabolite formation in human liver microsomes; format: in vitro ADME; details: 6 at 4 µM, 1.0 mg/mL HLM, 150 min
Procedure: as §1, §2

[4] = In vitro intrinsic clearance in dog liver microsomes (DLM); format: in vitro ADME, beagle dogs
Procedure: (§3) Liver microsomes from Sprague Dawley rats (RLM), CD-1 mice (MLM), beagle dogs (DLM), Göttinger mini pigs (MPLM), rhesus monkeys (RMLM), and humans (HLM, specified total P450 content: 0.286 nmol/mg protein) were obtained from Thermo Fisher Scientific/Life Technologies (Darmstadt, Germany). Optimization of incubation conditions (microsomal protein concentration, substrate solvent, incubation buffer) has been carried out in a previous study. For assessment of intrinsic clearance (CLint), substrate (8 µM CBX, MCBX or CPFPX, stock solutions in DMSO) and microsomes (0.4 mg/mL RLM, MLM, DLM and MPLM, 2.0 mg/mL HLM and 0.04 mg/mL RMLM) were preincubated for 5 min at 37 °C in HEPES buffer (100 mM, pH 7.4) containing MgCl2 (3.3 mM). Enzymatic reactions were initiated by addition of preheated NADPH (1.3 mM) and were allowed to proceed for 30 min. Aliquots (100 µL) were sampled from the incubation mixture (500 µL total volume) at 0 and 30 min. An equal volume of a mixture of MeOH/MeCN (50:50, v/v, cooled to −20 °C) was added to terminate the reaction. After subsequent homogenization on a vortex mixer (1 min, 21 °C) and centrifugation (10 min, 20,000× g rcf, 21 °C), the supernatants (50 µL aliquots) were analyzed via HPLC-UV/VIS (Knauer smartline system equipped with a Rheodyne type 7125 sample injector and a 500 µL sample loop). Chromatographic conditions were as follows. Column: 4.6 mm × 250 mm Kromasil 100-5-C18 (AkzoNobel, Bohus, Sweden); eluent composition: MeCN/H2O/AcOH 48:52:0.2 (v/v/v); flow rate: 1 mL/min; detection wavelength: 275 nm. Microsomal assays were performed in quadruplicate.
(§4) Elimination rate constants (k) of CBX, MCBX, and CPFPX were derived via linear regression analysis of semi-logarithmic peak area vs. time plots.
(§5) In vitro half-life (t1/2) was calculated as:(1) t1/2=ln2/k
(§6) In vitro intrinsic clearance was calculated as follows:(2) Clint=ln2/t1/2[…] where c is the microsomal protein concentration. Since the main focus of the study was to compare CLint between species, but not between compounds, no correction for the microsomal unbound fraction was applied.

[5] = In vitro intrinsic clearance in human liver microsomes (HLM); format: in vitro ADME
Procedure: as §3, §4, §5, §6

[6] = Metabolite profiles in liver microsomes from various species (HPLC-UV/LCMS); format: in vitro ADME, human, rat, mouse, dog, mini pig, rhesus monkey; details: for species whose metabolite profile is most similar to the human metabolite profile: liver microsomes; for Species (liver microsomes in which the peak was found): h human, r rat, m mouse, d dog, mp mini pig, rh rhesus, brackets indicate minor peaks, 275 nm; for number of metabolites produced by microsomal metabolism: in the microsomes of the test species
Procedure: Microsomal assays aimed at metabolite profiling were conducted according to the protocol described in Section 4.3.1, but with 10 µL substrate (CBX, MCBX, CPFPX) in a total incubation volume of 1 mL. In Table 6, microsomal protein concentrations and incubation times used in the individual assays are listed. Blank samples containing all matrix components but no substrate were included. Incubations were terminated by adding two volumens of a mixture of MeOH/MeCN (50:50, v/v, cooled to −20 °C). Samples were then vortexed (1 min, 21 °C), centrifuged (10 min, 20,000× g rcf, 21 °C), and evaporated to dryness using a centrifugal vacuum concentrator (Concentrator 5301, Eppendorf, Wesseling-Berzdorf, Germany) set to a temperature of 45 °C. Dried samples were reconstituted with 160 µL HPLC eluent (MeCN/H2O/AcOH 35:65:0.1 (v/v/v)) and centrifuged (3 min, 20,000× g rcf, 21 °C). Aliquots of the clear supernatant (25 µL) were subsequently injected into the HPLC system. Chromatographic parameters were the same as described in Section 4.3.1, except for the addition of a 3 mm NH2 guard column (OPTI-GUARD, Optimize Technologies Inc., Oregon City, OR, USA). For LCMS analyses, the UV-detector outlet was coupled to a mass spectrometer (MSQ PlusTM, Thermo Electron Corporation, San Jose, CA, USA) via an electrospray interface. LCMS parameters were as follows. Nebulizer M gas pressure: 6 bar; desolvation temperature: 500 °C; positive ion mode (ESI+); sprayer voltage: 3000 V; cone voltages: 50 V (unfragmented spectra) or 185 V (fragmented spectra), m/z range 1–800; scan time: 1 s. Mass spectra were analyzed using Xcalibur software (version 3.0).

[7] = In vitro intrinsic clearance in rat liver microsomes (RLM); format: in vitro ADME, Sprague Dawley rats; details: microsomes from rat, mouse, mini pig, and rhesus
Procedure: as §3, §4, §5, §6

[8] = In vitro intrinsic clearance in rhesus monkey liver microsomes (RMLM); format: in vitro ADME, rhesus monkeys; details: rhesus vs human liver microsomes; highest ratio among the three compounds
Procedure: as §3, with “Aliquots (100 µL) were sampled from the incubation mixture (500 µL total volume) at 0 and 30 min. An equal volume of a mixture of MeOH/MeCN (50:50, v/v, cooled to −20 °C) was added to terminate the reaction.” left out, “Chromatographic conditions were as follows. Column: 4.6 mm × 250 mm Kromasil 100-5-C18 (AkzoNobel, Bohus, Sweden); eluent composition: MeCN/H2O/AcOH 48:52:0.2 (v/v/v); flow rate: 1 mL/min; detection wavelength: 275 nm. Microsomal assays were performed in quadruplicate.” left out
as §5
In vitro intrinsic clearance was calculated as follows:(2) Clint=ln2/t1/2×c where c is the microsomal protein concentration. […]

[9] = from [18F]CPFPX; cited from earlier work
[10] = radiometabolite of [18F]CPFPX; cited from earlier work
[11] = from [18F]CPFPX; cited from earlier work; remark: listed apart in the source
[12] = rats and mice after [18F]CPFPX injection; cited from earlier work

Cn1c(=O)c2c(ncn2C)n(C)c1=O [caffeine]
rate of metabolism in hepatic microsomes, species comparison [1]: considerably higher in hepatic microsomes from humans than in those from rats or monkeys

CCCn1c(=O)c2[nH]c(C3=CC(O)CC3)nc2n(CCCF)c1=O (centres unmarked) [compound 9, 3-(3-fluoropropyl)-8-(3-hydroxycyclopent-1-en-1-yl)-1-propylxanthine]
metabolic fate (time course) in rat liver microsomes [2]: remained constant
metabolic fate (time course) in human liver microsomes [3]: further metabolized to 4

CCCn1c(=O)c2[nH]c(C3CCC3)nc2n(CCCF)c1=O [CBX, 8-Cyclobutyl-3-(3-fluoropropyl)-1-propylxanthine]
rank order of CLint [4]: CPFPX > MCBX ≈ CBX
rank order of CLint [5]: CBX > CPFPX > MCBX
species whose metabolite profile is most similar to the human metabolite profile [6]: rhesus monkey and mini pig
Species (liver microsomes in which the peak was found) ([6]; substrate CBX): (h), r, m, d, (mp), rh
rank order of CLint [7]: CPFPX > MCBX > CBX

CCCn1c(=O)c2[nH]c(C3=CCCC3)nc2n(CCCF)c1=O [compound 6, 8-(Cyclopent-1-en-1-yl)-3-(3-fluoropropyl)-1-propylxanthine]
metabolic fate (time course) in rat liver microsomes [2]: oxidized to produce 9
metabolic fate (time course) in human liver microsomes [3]: biotransformation proceeds from 6 via 9 to 4

CCCn1c(=O)c2nc(C3CCCC3)[nH]c2n(CCCF)c1=O [CPFPX, 8-Cyclopentyl-3-(3-fluoropropyl)-1-propylxanthine]
rank order of CLint [4]: CPFPX > MCBX ≈ CBX
CLint in rhesus microsomes relative to human microsomes (fold higher) [8]: 134 fold
rank order of CLint [5]: CBX > CPFPX > MCBX
number of metabolites produced by microsomal metabolism [6]: up to 12 metabolites
Species (liver microsomes in which the peak was found) ([6]; substrate CPFPX): h, r, m, d, mp, rh
rank order of CLint [7]: CPFPX > MCBX > CBX

CCCn1c(=O)c2[nH]c(C3=CC(=O)CC3)nc2n(CCCF)c1=O [compound 4, 3-(3-Fluoropropyl)-8-(3-oxocyclopent-1-en-1-yl)-1-propylxanthine]
formation of the enone radiometabolite in human microsomes [9]: extensive formation
blood–brain barrier penetration [10]: does not penetrate the blood–brain barrier
excretion from the body [10]: slow excretion from the body
species microsomes generating the enone metabolite from CPFPX ([6]; substrate CPFPX): exclusively in human and dog microsomes
Species (liver microsomes in which the peak was found) ([6]; substrate CPFPX): h, d
formation of the enone radiometabolite in microsomes from rats and mice [11]: almost no significant amounts could be detected
formation of the enone metabolite in vivo (plasma) [12]: generated in vivo

CCCn1c(=O)c2[nH]c(C3(C)CCC3)nc2n(CCCF)c1=O [MCBX, 3-(3-Fluoropropyl)-8-(1-methylcyclobutyl)-1-propylxanthine]
rank order of CLint [4]: CPFPX > MCBX ≈ CBX
rank order of CLint [5]: CBX > CPFPX > MCBX
number of metabolites produced by microsomal metabolism [6]: up to 10 metabolites
species whose metabolite profile is most similar to the human metabolite profile [6]: Rodent
Species (liver microsomes in which the peak was found) ([6]; substrate MCBX): h, r, m, d, mp, rh
rank order of CLint [7]: CPFPX > MCBX > CBX
